Results: paper PMC8575619, “Cytotoxic and Antifungal Amides Derived from Ferulic Acid: Molecular Docking and Mechanism of Action” (BioMed Research International, 2021)
In brackets after ≈: the same amount, converted by molar mass. Several values for one entry are separate records, joined by “and”; a condition that tells them apart may be missing. Identical values can stand only once. Like-named read-outs stand apart in the source and are kept apart here.

How the values were obtained:
HCT116 = assay: Cytotoxicity assay, alamar blue test; format: cell-based, human; settings: value (95% confidence interval)
Protocol: (§1) HepG2 cells (human hepatocellular carcinoma), HCT116 (human colon carcinoma), HL-60 (human promyelocytic leukemia), and MRC5 (human lung fibroblast) obtained from the ATCC (Manassas, VA, USA) were used. Cells were cultured in cell culture bottles (75 cm 3, 250 mL volume), and media used were RPMI 1640 and supplemented with 10% fetal bovine serum. Cells were maintained in incubators with 5% CO2 atmosphere at 37°C. Cellular growth was monitored daily with the use of an inversion microscope. The medium was changed whenever cell growth reached the necessary confluence for nutrient renewal. For the maintenance of adhered cells, trypsin (0.25%) was used for the cells to detach from the walls of the bottles.
(§2) To assess the cytotoxicity of the substances, the alamar blue test was performed after 72 h of exposure with the test substances. Alamar blue, known as resazurin [62], is a fluorescent/colorimetric indicator with redox properties. The reduction in alamar blue reflects cell proliferation. This was initially used to indicate cell growth and/or viability in monitoring lymphocyte proliferation and currently has several applications. Initially, cells were plated in 96-well plates (100 μL/well of a solution of 0.3 × 10^6 cells/mL for cells in suspension and 0.7 × 10^5 cells/mL for adhered cells). After 24 h of incubation, the test substances dissolved in DMSO were added to each well and incubated for 72 h. Doxorubicin was used as a positive control. The negative control received the same amount of DMSO. Four hours before the end of the incubation period, 20 μL of the stock solution (0.312 mg/mL) of alamar blue (resazurin) was added to each well. Absorbances were measured at wavelengths of 570 nm (reduced) and 600 nm (oxidized) using a plate reader.

HL-60 = assay: Cytotoxicity assay, alamar blue test; format: cell-based, human; settings: value (95% confidence interval); for IC50: read-out: IC50 HL60
Protocol: as §1, §2

HepG2 cells = assay: Cytotoxicity assay, alamar blue test; format: cell-based, human; settings: value (95% confidence interval)
Protocol: as §1, §2

MRC5 = assay: Cytotoxicity assay, alamar blue test (healthy cell line); format: cell-based, human; settings: value (95% confidence interval)
Protocol: as §1, §2

Candida albicans CBS 562 [1] = assay: Minimum fungicide concentration (MFC); format: cell-based; settings: ≥ 4 fungistatic or <4 fungicide
Protocol: (§3) Antifungal activity evaluations were performed using references strains of Candida spp., obtained from the Centraalbureau voor Schimmelcultures (CBS, Ultrecht, Netherlands): Candida albicans CBS 562, Candida tropicalis CBS 94, and Candida krusei CBS 573. Nystatin, Tween 80%, DMSO, caspofungin diacetate, and ergosterol were obtained from Sigma-Aldrich® (St. Louis, MO, EUA) and sorbitol (D-sorbitol anhydrous) from INLAB® (São Paulo, Brazil). All assays were performed in triplicate in three independent experiments. The culture medium used for maintenance of the microorganisms was Agar Sabouraud Dextrose (ASD). Inoculants were adjusted to a final concentration of 2.5 × 10^3 CFU/mL (Clinical and Laboratory Standards Institute, 2002). […]
(§4) The minimum fungicide concentration (MFC) of the compounds was obtained after the interpretation of the MIC. Three (3) aliquots of 30 μL of supernatant were removed from the wells (where complete inhibition of fungal growth was analyzed) and placed in Petri dishes containing 15 mL of agar Sabouraud dextrose. The plates were incubated at 35 ± 2°C for 24 h for visual counting of colony forming units. To determine whether the compounds had fungistatic (MFC/MIC ≥ 4) or fungicidal (MFC/MIC < 4) activity, the MFC/MIC ratio was calculated.

Candida krusei CBS 573 = assay: Minimum fungicide concentration (MFC); format: cell-based; settings: ≥ 4 fungistatic or <4 fungicide
Protocol: as §3, §4

[2] = test system: Candida tropicalis CBS 94; assay: Minimum fungicide concentration (MFC); format: cell-based; settings: ≥ 4 fungistatic or <4 fungicide
Protocol: as §3, §4

[3] = test system: Candida strains (Candida albicans, C. tropicalis, and C. krusei); assay: Antifungal evaluation (MIC/MFC), statements for all Candida strains; format: cell-based, Candida spp.
Protocol: The antifungal activity (Table 2) of the ten amides was assessed via the minimum inhibitory concentration (MIC) which was determined using the microdilution methods against three species of Candida strains (Candida albicans, C. tropicalis, and C. krusei).
as §3
(§5) MIC was determined by the microdilution technique, as previously described by the adapted Clinical and Laboratory Standards Institute (CLSI, 2002) method. The compounds were subjected to the microdilution technique in 96-well plates, with U bottom. The samples were dissolved with DMSO and sterile distilled water (up to 1.0 mL). Through serial dilutions, concentrations of the evaluated compounds ranging from 1000 μg/mL to 7.8 μg/mL. The culture sterility medium, the evaluated substances, and the microbial growth were carried out in parallel. The plates were closed and subjected to a temperature of 35 ± 2°C for 24 h. 1% TTC (2,3,5-triphenyl tetrazolium chloride, Sigma-Aldrich®, St. Louis, MO, EUA) was added to each well to confirm the presence of viable microorganisms. MIC was defined as the lowest concentration of the test substance that inhibits visible microbial growth.
as §4, with “units.” for “units. To determine whether the compounds had fungistatic (MFC/MIC ≥ 4) or fungicidal (MFC/MIC < 4) activity, the MFC/MIC ratio was calculated.”

C. albicans = assay: Ergosterol test (plasma membrane mechanism), microdilution; format: cell-based, Candida albicans; settings: for MIC Without ergosterol: absence of ergosterol
Protocol: (2) Ergosterol Test. The test of the compounds was performed using the microdilution technique, as previously described, in the presence of exogenous ergosterol at 400 μg/mL. Nystatin was used as positive control. The plates were incubated at 35 ± 2°C, and readings were taken at 24 and 48 h.

C. albicans CBS 562 = assay: Sorbitol assay (cell wall mechanism), microdilution; format: cell-based, Candida albicans; settings: for MIC: Candida albicans
Protocol: (1) Sorbitol Assay. The microdilution technique was performed in the presence of sorbitol (D-sorbitol, anhydrous) (INLAB laboratory), to determine the mode of action of the compounds on the cell wall of C. albicans CBS 562. For this test, the inoculum was prepared with sorbitol to a final concentration of 0.8 M. The plates were incubated at 35 ± 2°C, and readings were taken 24 h and 48 h after incubation. Caspofungin was used as positive control at an initial concentration of 5 mg/mL [68–70].

Candida albicans CBS 562 [4] = assay: MIC by broth microdilution; format: cell-based; settings: 24 h, N.A.: no activity
Protocol: as §3, §5

Molecule	IC50 (HCT116; 72 h) [µM]	IC50 HCT116 (HCT116; 72 h)	IC50 HL60 (HL-60; 72 h)	IC50 (HL-60; 72 h) [µM]	IC50 (HepG2 cells; 72 h) [µM]	IC50 HEPG2 (HepG2 cells; 72 h)	IC50 (MRC5; 72 h) [µM]	IC50 MRC5 (MRC5; 72 h)	MIC/MFC reason C. albicans CBS 562 (Candida albicans CBS 562 [1])	MIC/MFC reason C. krusei CBS 573 (Candida krusei CBS 573)	MIC/MFC reason C. tropicalis CBS 94 [2]	other results
(E)-N-benzyl-3-(3-hydroxy-4-methoxyphenyl)acrylamide [Compound 6]	70.3	18.93 (13.48–26.57) μg/mL	17.49 (14.24–421.48) μg/mL	64.9	107	20.82 (17.45–28.23) μg/mL	76.5	20.59 (16.22–26.13) μg/mL	1	1	–	–
(E)-3-(3-hydroxy-4-methoxyphenyl)-N-phenylacrylamide [Compound 5]	> 88.2	>25 µg/mL	14.28 (9.40–21.70) μg/mL	50.4	> 88.2	>25 µg/mL	> 88.2	>25 µg/mL	–	–	–	–
C[C@@H]1[C@H](O)[C@@H](C)/C=C/C=C/CC/C=C/C=C/C=C/C=C/C(O[C@H]2O[C@H](C)[C@@H](O)[C@H](N)[C@@H]2O)CC2O[C@](O)(CC(O)C(O)CCC(O)CC(O)CC(O)CC(=O)O[C@H]1C)CC(O)C2C(=O)O (stereo partly drawn) [Nystatin, reference compound]	–	–	–	–	–	–	–	–	1	1	1	MFC ([3]; stated for all Candida strains): 4.3 µM (≈ 3.98 µg/mL); MIC ([3]; stated for all Candida strains): 4.3 µM (≈ 3.98 µg/mL); MIC Without ergosterol (C. albicans): 3.75 µg/mL (≈ 4.05 µM); MIC With ergosterol (C. albicans; exogenous ergosterol at 400 μg/mL): 31.25 µg/mL (≈ 33.7 µM)
CC[C@H](C)C[C@H](C)CCCCCCCCC(=O)N[C@H]1C[C@@H](O)[C@@H](NCCN)NC(=O)[C@@H]2[C@@H](O)CCN2C(=O)[C@H]([C@H](O)CCN)NC(=O)[C@H]([C@H](O)[C@@H](O)c2ccc(O)cc2)NC(=O)[C@@H]2C[C@@H](O)CN2C(=O)[C@H]([C@@H](C)O)NC1=O [Caspofungin, reference compound]	–	–	–	–	–	–	–	–	–	–	–	MIC (C. albicans CBS 562; CBS562, read-out: MIC With sorbitol): 1 µg/mL (≈ 0.915 µM); MIC (C. albicans CBS 562; CBS562, read-out: MIC Without sorbitol): 0.015 µg/mL (≈ 0.0137 µM)
COc1ccc(/C=C/C(=O)N2CCCC2)cc1O [Compound 3, (E)-3-(3-hydroxy-4-methoxyphenyl)-1-(pyrrolidin-1-yl)prop-2-en-1-one]	–	–	–	–	–	–	–	–	–	–	–	IC50 (HCT116; Homo sapiens, HCT-116, 72 h): > 25 µg/mL and > 95.7 µM; IC50 (HL-60; Homo sapiens, HL-60, 72 h): > 25 µg/mL and > 95.7 µM; IC50 (HepG2 cells; Homo sapiens, HepG2, 72 h): > 25 µg/mL and > 95.7 µM; IC50 (MRC5; Homo sapiens, MRC5, 72 h): > 25 µg/mL and > 95.7 µM; melting point: 158 to 162 °C
(E)-3-(3-hydroxy-4-methoxyphenyl)-N-(4-methylbenzyl)acrylamide [Compound 7]	> 84.1	>25 µg/mL	–	53.1	> 84.1	>25 µg/mL	> 84.1	>25 µg/mL	–	1	1	MIC C. albicans CBS 562 (Candida albicans CBS 562 [4]): inactive
COc1cc(/C=C/C(=O)NCC(C)C)ccc1O [Compound 2, (E)-3-(4-hydroxy-3-methoxyphenyl)-N-isobutylacrylamide]	–	–	–	–	–	–	–	–	–	–	–	IC50 (HCT116; Homo sapiens, HCT-116, 72 h): > 25 µg/mL and > 100 µM; IC50 (HL-60; Homo sapiens, HL-60, 72 h): > 25 µg/mL and > 100 µM; IC50 (HepG2 cells; Homo sapiens, HepG2, 72 h): > 25 µg/mL and > 100 µM; IC50 (MRC5; Homo sapiens, MRC5, 72 h): > 25 µg/mL and > 100 µM; melting point: 75 to 81 °C
(E)-N-(3,4-dimethoxybenzyl)-3-(3-hydroxy-4-methoxyphenyl)acrylamide [Compound 10]	> 78.9	>25 µg/mL	12.51 (7.41–18.12) μg/mL	36.5	> 78.9	>25 µg/mL	> 78.9	>25 µg/mL	1	1	1	bioactivity category by MIC ([3]; Candida strains): good bioactivity (good bioactivity (MIC between 26 and 125 μg/mL)); MIC Without sorbitol (C. albicans CBS 562; C. albicans CBS 562, absence of sorbitol): 31.25 µg/mL; MIC With sorbitol (C. albicans CBS 562; C. albicans CBS 562, sorbitol 0.8 M): >1000 µg/mL; MIC Without ergosterol (C. albicans): 62.25 µg/mL
(E)-N-cyclohexyl-3-(3-hydroxy-4-methoxyphenyl)acrylamide [Compound 4]	> 90.8	>25 µg/mL	18.84 (11.58–27.65) μg/mL	68.4	> 90.8	>25 µg/mL	> 90.8	>25 µg/mL	–	–	–	–
(E)-3-(3-hydroxy-4-methoxyphenyl)-N-(4-methoxybenzyl)acrylamide [Compound 8]	> 79.8	>25 µg/mL	–	70.3	64.7	20.27 (15.94–25.77) μg/mL	53.2	16.69 (13.18–21.13) μg/mL	1	1	1	MIC ([3]; stated for all Candida strains): 1590 µM
COc1cccc2c1C(=O)c1c(O)c3c(c(O)c1C2=O)C[C@@](O)(C(=O)CO)C[C@@H]3O[C@H]1C[C@H](N)[C@H](O)[C@H](C)O1 [DOX, Doxorubicin, reference compound]	–	–	–	–	–	–	–	–	–	–	–	IC50 (HCT116; Homo sapiens, HCT-116, 72 h): 0.02 µg/mL and 40 nM; IC50 (HL-60; Homo sapiens, HL-60, 72 h): 0.03 µg/mL and 60 nM; IC50 (HepG2 cells; Homo sapiens, HepG2, 72 h): 0.01 µg/mL and 20 nM; IC50 (MRC5; Homo sapiens, MRC5, 72 h): 1 µg/mL and 1.84 µM
(E)-N-(4-chlorobenzyl)-3-(3-hydroxy-4-methoxyphenyl)acrylamide [Compound 9]	> 78.7	>25 µg/mL	15.58 (9.26–26.20) μg/mL	49	> 78.7	>25 µg/mL	> 78.7	>25 µg/mL	–	1	1	MIC C. albicans CBS 562 (Candida albicans CBS 562 [4]): inactivity
